According to PubChem BioAssay (NCI):
“And” between values parts separate entries of the source, which are not always exact repeats. Equal values may be shown once.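 Method: 48-hour compound exposure of cells in 96-well plates, five concentrations, linear interpolation of endpoints. Here, GI50 denotes the concentration required for 50% inhibition of growth. TGI: total growth inhibition.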

What was measured:
Experiment in all cases: NCI-60 cell line screen, 48 h
786-0 renal = system: 786-0 renal
A498 renal = system: A498 renal
A549 NSCLC = system: A549 NSCLC
ACHN renal = system: ACHN renal
BT-549 breast = system: BT-549 breast
CAKI-1 renal = system: CAKI-1 renal
CCRF-CEM leukemia = system: CCRF-CEM leukemia
COLO 205 colon = system: COLO 205 colon
DU-145 prostate = system: DU-145 prostate
EKVX NSCLC = system: EKVX NSCLC
HCC-2998 colon = system: HCC-2998 colon
HCT-116 colon = system: HCT-116 colon
HCT-15 colon = system: HCT-15 colon
HL-60(TB) leukemia = system: HL-60(TB) leukemia
HOP-62 NSCLC = system: HOP-62 NSCLC
HOP-92 NSCLC = system: HOP-92 NSCLC
HS 578T breast = system: HS 578T breast
HT29 colon = system: HT29 colon
IGROV1 ovarian = system: IGROV1 ovarian
K-562 leukemia = system: K-562 leukemia
KM12 colon = system: KM12 colon
LOX IMVI melanoma = system: LOX IMVI melanoma
M14 melanoma = system: M14 melanoma
MALME-3M melanoma = system: MALME-3M melanoma
MCF7 breast = system: MCF7 breast
MDA-MB-231 breast = system: MDA-MB-231 breast
MDA-MB-435 = system: MDA-MB-435
MOLT-4 leukemia = system: MOLT-4 leukemia
NCI-H226 lung = system: NCI-H226 lung
NCI-H23 lung = system: NCI-H23 lung
NCI-H460 lung = system: NCI-H460 lung
NCI-H522 lung = system: NCI-H522 lung
NCI/ADR-RES ovarian = system: NCI/ADR-RES ovarian
OVCAR-3 ovarian = system: OVCAR-3 ovarian
OVCAR-4 ovarian = system: OVCAR-4 ovarian
OVCAR-5 ovarian = system: OVCAR-5 ovarian
OVCAR-8 ovarian = system: OVCAR-8 ovarian
PC-3 prostate = system: PC-3 prostate
RPMI-8226 leukemia = system: RPMI-8226 leukemia
RXF 393 renal = system: RXF 393 renal
SF-268 CNS = system: SF-268 CNS
SF-295 CNS = system: SF-295 CNS
SF-539 CNS = system: SF-539 CNS
SK-MEL-2 melanoma = system: SK-MEL-2 melanoma
SK-MEL-28 melanoma = system: SK-MEL-28 melanoma
SK-MEL-5 melanoma = system: SK-MEL-5 melanoma
SK-OV-3 ovarian = system: SK-OV-3 ovarian
SN12C renal = system: SN12C renal
SNB-19 CNS = system: SNB-19 CNS
SNB-75 CNS = system: SNB-75 CNS
SR leukemia = system: SR leukemia
SW-620 colon = system: SW-620 colon
T-47D breast = system: T-47D breast
TK-10 renal = system: TK-10 renal
U251 CNS = system: U251 CNS
UACC-257 melanoma = system: UACC-257 melanoma
UACC-62 melanoma = system: UACC-62 melanoma
UO-31 renal = system: UO-31 renal

CCN(CC)CCNc1cc(-c2cccc(OC(F)(F)F)c2)nc2ccc(N3CCCC3)cc12
GI50 (786-0 renal): 1660 nM and 1670 nM and 1590 nM | TGI (786-0 renal): 3.19 µM and 3.23 µM | GI50 (A498 renal): 1610 nM and 1820 nM and 3420 nM | TGI (A498 renal): 6.15 µM and 3.44 µM and 14.9 µM | GI50 (A549 NSCLC): 1710 nM and 1730 nM and 2550 nM | TGI (A549 NSCLC): 3.35 µM and 3.29 µM and 7.3 µM | GI50 (ACHN renal): 1530 nM and 1680 nM and 1920 nM | TGI (ACHN renal): 2.9 µM and 3.28 µM and 3.93 µM | GI50 (BT-549 breast): 1600 nM and 1830 nM and 1850 nM | TGI (BT-549 breast): 3.11 µM and 3.47 µM and 3.57 µM | GI50 (CAKI-1 renal): 1580 nM and 1410 nM and 3080 nM | TGI (CAKI-1 renal): 3.29 µM and 2.76 µM and 11.5 µM | GI50 (CCRF-CEM leukemia): 1570 nM and 2190 nM and 2800 nM | TGI (CCRF-CEM leukemia): 4.2 µM and 6.84 µM and 10.4 µM | GI50 (COLO 205 colon): 1450 nM and 1690 nM | TGI (COLO 205 colon): 2.91 µM and 3.24 µM | GI50 (DU-145 prostate): 1850 nM and 2360 nM and 3590 nM | TGI (DU-145 prostate): 4.1 µM and 5.44 µM and 12.8 µM | GI50 (EKVX NSCLC): 2140 nM and 2290 nM and 2490 nM | TGI (EKVX NSCLC): 5.82 µM and 6.24 µM and 8.91 µM | GI50 (HCC-2998 colon): 1340 nM and 1280 nM and 1900 nM | TGI (HCC-2998 colon): 2720 nM and 2600 nM and 4060 nM | GI50 (HCT-116 colon): 1240 nM and 1260 nM and 1540 nM | TGI (HCT-116 colon): 2520 nM and 2720 nM and 3050 nM | GI50 (HCT-15 colon): 1460 nM and 1380 nM and 1730 nM | TGI (HCT-15 colon): 3.17 µM and 2.84 µM and 3.71 µM | GI50 (HL-60(TB) leukemia): 1660 nM and 714 nM and 2000 nM | TGI (HL-60(TB) leukemia): 3.65 µM and 3.01 µM and 4.12 µM | GI50 (HOP-62 NSCLC): 1520 nM and 1750 nM and 1880 nM | TGI (HOP-62 NSCLC): 2.96 µM and 3.24 µM and 4 µM | GI50 (HOP-92 NSCLC): 1170 nM and 1340 nM and 1510 nM | TGI (HOP-92 NSCLC): 2.84 µM and 3.09 µM and 4.68 µM | GI50 (HS 578T breast): 1590 nM and 1870 nM and 2780 nM | TGI (HS 578T breast): 3.52 µM and 4.04 µM and 13 µM | GI50 (HT29 colon): 1700 nM and 1600 nM and 1760 nM | TGI (HT29 colon): 3.47 µM and 3.33 µM and 3.73 µM | GI50 (IGROV1 ovarian): 1340 nM and 1410 nM and 1460 nM | TGI (IGROV1 ovarian): 2.87 µM and 3.04 µM and 3.05 µM | GI50 (K-562 leukemia): 1360 nM and 1800 nM and 2180 nM | TGI (K-562 leukemia): 6.14 µM and 5.09 µM and 5.01 µM | GI50 (KM12 colon): 1710 nM and 1700 nM and 1850 nM | TGI (KM12 colon): 3.51 µM and 3.39 µM and 3.77 µM | GI50 (LOX IMVI melanoma): 1560 nM and 1390 nM and 1730 nM | TGI (LOX IMVI melanoma): 2960 nM and 2730 nM and 3190 nM | GI50 (M14 melanoma): 1600 nM and 1820 nM and 1860 nM | TGI (M14 melanoma): 3.12 µM and 3.51 µM and 3.63 µM | GI50 (MALME-3M melanoma): 1720 nM and 2010 nM and 1690 nM | TGI (MALME-3M melanoma): 3.34 µM and 3.76 µM and 3.17 µM | GI50 (MCF7 breast): 1640 nM and 1450 nM and 1760 nM | TGI (MCF7 breast): 3.44 µM and 2.9 µM and 3.62 µM | GI50 (MDA-MB-231 breast): 1680 nM and 1650 nM and 1500 nM | TGI (MDA-MB-231 breast): 3.27 µM and 3.31 µM and 3.13 µM | GI50 (MDA-MB-435): 1470 nM and 1430 nM and 1740 nM | TGI (MDA-MB-435): 2830 nM and 2850 nM and 3300 nM | GI50 (MOLT-4 leukemia): 1840 nM and 1920 nM and 2080 nM | TGI (MOLT-4 leukemia): 4.7 µM and 4.92 µM and 6.08 µM | GI50 (NCI-H226 lung): 2080 nM and 1760 nM and 2790 nM | TGI (NCI-H226 lung): 4.26 µM and 3.45 µM and 8.02 µM | GI50 (NCI-H23 lung): 1820 nM and 1870 nM and 1890 nM | TGI (NCI-H23 lung): 3.65 µM and 3.72 µM | GI50 (NCI-H460 lung): 1620 nM and 1700 nM | TGI (NCI-H460 lung): 3.27 µM and 3.47 µM | GI50 (NCI-H522 lung): 1880 nM and 1640 nM and 1920 nM | TGI (NCI-H522 lung): 3.63 µM and 3.24 µM and 4 µM | GI50 (NCI/ADR-RES ovarian): 1650 nM and 1720 nM and 2180 nM | TGI (NCI/ADR-RES ovarian): 3.19 µM and 3.3 µM and 4.53 µM | GI50 (OVCAR-3 ovarian): 1820 nM and 1830 nM and 1900 nM | TGI (OVCAR-3 ovarian): 4.11 µM and 3.77 µM and 4.41 µM | GI50 (OVCAR-4 ovarian): 2140 nM and 1620 nM and 3110 nM | TGI (OVCAR-4 ovarian): 7.86 µM and 3.67 µM and 12.9 µM | GI50 (OVCAR-5 ovarian): 1940 nM and 2240 nM | TGI (OVCAR-5 ovarian): 3.93 µM and 3.83 µM and 6.12 µM | GI50 (OVCAR-8 ovarian): 1940 nM and 1760 nM and 1990 nM | TGI (OVCAR-8 ovarian): 4.04 µM and 3.36 µM and 4.24 µM | GI50 (PC-3 prostate): 1370 nM and 1570 nM and 1810 nM | TGI (PC-3 prostate): 2.76 µM and 3.1 µM and 3.81 µM | GI50 (RPMI-8226 leukemia): 1350 nM and 1600 nM and 1690 nM | TGI (RPMI-8226 leukemia): 3.54 µM and 3.94 µM and 4.22 µM | GI50 (RXF 393 renal): 1510 nM and 1500 nM and 1700 nM | TGI (RXF 393 renal): 3.03 µM and 3.09 µM and 4.02 µM | GI50 (SF-268 CNS): 1980 nM and 1920 nM and 2230 nM | TGI (SF-268 CNS): 4.18 µM and 3.96 µM and 5.89 µM | GI50 (SF-295 CNS): 1630 nM and 1730 nM and 1920 nM | TGI (SF-295 CNS): 3.23 µM and 3.36 µM and 3.79 µM | GI50 (SF-539 CNS): 1680 nM and 1740 nM and 1790 nM | TGI (SF-539 CNS): 3.2 µM and 3.32 µM and 3.36 µM | GI50 (SK-MEL-2 melanoma): 1610 nM and 1870 nM and 1900 nM | TGI (SK-MEL-2 melanoma): 3.3 µM and 3.49 µM and 3.61 µM | GI50 (SK-MEL-28 melanoma): 1660 nM and 1900 nM and 1740 nM | TGI (SK-MEL-28 melanoma): 3.16 µM and 3.38 µM and 3.17 µM | GI50 (SK-MEL-5 melanoma): 1630 nM and 1910 nM and 1700 nM | TGI (SK-MEL-5 melanoma): 2.99 µM and 3.35 µM and 3.17 µM | GI50 (SK-OV-3 ovarian): 1690 nM and 1880 nM and 3010 nM | TGI (SK-OV-3 ovarian): 3.63 µM and 3.66 µM and 9.59 µM | GI50 (SN12C renal): 1690 nM and 1530 nM and 1890 nM | TGI (SN12C renal): 3.37 µM and 2.98 µM and 3.86 µM | GI50 (SNB-19 CNS): 1750 nM and 1840 nM and 1980 nM | TGI (SNB-19 CNS): 3.4 µM and 3.31 µM and 3.8 µM | GI50 (SNB-75 CNS): 1790 nM and 1740 nM | TGI (SNB-75 CNS): 4.29 µM and 5.78 µM | GI50 (SR leukemia): 418 nM and 462 nM | TGI (SR leukemia): 2120 nM and 2260 nM | GI50 (SW-620 colon): 1670 nM and 1860 nM and 2010 nM | TGI (SW-620 colon): 3.25 µM and 3.79 µM and 4.36 µM | GI50 (T-47D breast): 1780 nM and 2120 nM | TGI (T-47D breast): 4.04 µM and 4.32 µM | GI50 (TK-10 renal): 2060 nM and 1870 nM and 2310 nM | TGI (TK-10 renal): 4.5 µM and 3.49 µM and 5.73 µM | GI50 (U251 CNS): 1540 nM and 1550 nM and 1710 nM | TGI (U251 CNS): 3.1 µM and 2.95 µM and 3.35 µM | GI50 (UACC-257 melanoma): 1810 nM and 1760 nM | TGI (UACC-257 melanoma): 3.51 µM and 3.32 µM and 3.6 µM | GI50 (UACC-62 melanoma): 1810 nM and 1820 nM and 1790 nM | TGI (UACC-62 melanoma): 3.47 µM and 3.28 µM and 3.51 µM | GI50 (UO-31 renal): 1230 nM and 1350 nM and 1460 nM | TGI (UO-31 renal): 2500 nM and 2690 nM and 2990 nM
